Where a name gives a salt, the structure may show the parent alone.
Assays:
rabbit aldolase = target: T1, rabbit aldolase (Oryctolagus cuniculus, UniProt P00883); assay: aldolase enzyme activity assay, rabbit aldolase; type: biochemical; conditions: surrogate for human aldolase
T1 sequence (P00883 1-364): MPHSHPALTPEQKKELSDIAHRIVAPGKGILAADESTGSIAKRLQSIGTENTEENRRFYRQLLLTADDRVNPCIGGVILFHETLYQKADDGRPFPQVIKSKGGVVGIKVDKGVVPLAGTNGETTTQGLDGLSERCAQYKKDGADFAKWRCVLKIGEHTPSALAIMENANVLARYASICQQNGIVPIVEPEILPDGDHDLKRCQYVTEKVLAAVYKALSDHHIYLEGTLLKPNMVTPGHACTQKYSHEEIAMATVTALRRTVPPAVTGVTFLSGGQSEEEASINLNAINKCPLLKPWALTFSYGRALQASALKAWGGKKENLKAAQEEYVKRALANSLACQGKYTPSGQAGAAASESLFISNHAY
Description: (§1) FIGS. 16A-16D depict an aldolase enzyme activity assay. (A) Cartoon and surface representation of aldolase with TRAPpep bound (magenta, sticks) (PDB entry 2pc4), overlapping the F16BP (green, sticks) substrate binding site (PDB entry 4ald), via PyMOL. (B) Coupled enzyme assay to measure aldolase activity via NADH consumption as measured at 340 nm. (C) Concentration-dependent effect of compounds on PfAldolase inhibition in the presence of PbTRAP peptide. Activity is normalized to the PbTRAP control, which reduces Vmax to 50% of enzyme without PbTRAP. (D) PfAldolase activity in the presence of compounds to determine direct inhibition of enzyme by the compounds. Activity is normalized to the PfAldolase control measured Vmax. Standard error means plotted for activity assays and standard deviation for SPR data.
(§2) Dose-Dependent Enzymatic Inhibition of Compounds on P. falciparum Aldolase and Rabbit Aldolase as a Surrogate for Human Aldolase.

[1] = target: P. falciparum aldolase in the presence of TRAP (Plasmodium falciparum, UniProt Q7KQL9); assay: aldolase enzyme activity assay, P. falciparum aldolase in the presence of TRAP; type: biochemical; conditions: in the presence of TRAP and the compounds
Description: as §1, §2

P. berghei sporozoites = assay: trail radius of gliding sporozoites (ImageJ); type: cell-based; conditions: 62.5 μM; 130-150 trail radii; p-value <0.0001
Procedure: The trail radius was measured using ImageJ and the statistical analyses to determine standard error mean and t-test were performed using GraphPad.
The gliding phenotype was altered to determine whether the compounds were having off-target effects. While quantifying the number of deposited trails, the trail diameter in the presence of compounds was altered. An altered trail diameter is more likely due to either a direct effect on the motor or an effect on sporozoite shape. The diameter of the circular trails deposited by the parasites in the DMSO control was measured and in the presence of three compounds at 62.5 μM (FIG. 8). This concentration was chosen because at higher concentrations, there were not enough sporozoite trails to measure to do a statistical analysis of the results. Using ImageJ, circles were fit to trails in multiple images to measure 130-150 trail radii. The average trail radii increased in the presence of compounds 4, 17, and 18 with a p-value <0.0001. The increase in average trail size was 6.3 microns, 2.5 microns, and 3.6, for compounds 4, 17, and 18, respectively.

Sequence of P. falciparum aldolase in the presence of TRAP (Q7KQL9 whole entry): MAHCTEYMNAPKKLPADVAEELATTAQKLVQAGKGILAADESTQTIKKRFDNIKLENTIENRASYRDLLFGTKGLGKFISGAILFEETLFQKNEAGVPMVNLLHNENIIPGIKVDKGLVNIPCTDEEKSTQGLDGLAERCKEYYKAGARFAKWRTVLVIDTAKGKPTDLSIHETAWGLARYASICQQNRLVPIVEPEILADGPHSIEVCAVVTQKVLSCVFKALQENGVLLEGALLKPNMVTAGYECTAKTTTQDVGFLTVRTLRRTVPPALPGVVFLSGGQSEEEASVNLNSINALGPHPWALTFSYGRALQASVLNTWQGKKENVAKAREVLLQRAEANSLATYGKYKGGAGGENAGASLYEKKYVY

Structure (SMILES): CCN(CC)S(=O)(=O)c1ccc(-c2csc(Nc3ccc(C)c(C)c3)n2)cc1 [Compound 3, 4-{2-[(3,4-dimethylphenyl)amino]-1,3-thiazol-4-yl}-N,N-diethylbenzenesulfonamide hydrobromide]
- enzyme inhibition on rabbit aldolase (rabbit aldolase): no enzyme inhibition
- inhibition of P. falciparum aldolase [1]: inhibited

Structure (SMILES): O=C(Nc1ccc(-c2nc3cc4ccccc4cc3[nH]2)cc1)c1cccc(Br)c1 [Compound 17, 3-bromo-N-[4-(1H-naphtho[2,3-d]imidazol-2-yl)phenyl]benzamide]
- increase in average trail size (trail radius) vs DMSO control (P. berghei sporozoites): 2.5 microns

Reference: patent US20180087086A1, “CELL EGRESS AND INVASION INHIBITORS AND THEIR USE AS ANTIPARASITICAL AGENTS” (THE JOHNS HOPKINS UNIVERSITY, priority 2015, published 2018)
